Laboratory results as given in article PMC12136991 (ACS chemical neuroscience, 2025).
Values after ≈ are worked out from the molar mass of the structure shown. Values joined by “and” are separate entries in the source; they are usually repeats but may differ in a detail not shown here. Equal values may be shown once. “Also recorded” adds a separate entry of the source.

Columns and labels:
[1] = Multi-point microsome stability assay, mouse; assay type: in vitro ADME; settings: male, CD-1, mouse, mouse microsomal fractions, pH 7.4
mice [2] = settings: administered before IP 0.56% lactic acid; previously published; cited from earlier work
[3] = target: T1, human κ-opioid receptor (OPRK1) (Homo sapiens, UniProt P41145); test: Forskolin-induced cAMP accumulation assay, KOR antagonist mode
[4] = Multi-point cytosol stability assay, human; assay type: in vitro ADME; settings: human cytosol fractions, pH 7.4
[5] = Multi-point cytosol stability assay, rat; assay type: in vitro ADME; settings: rat cytosol fractions, pH 7.4
[6] = Multi-point cytosol stability assay, mouse; assay type: in vitro ADME; settings: mouse cytosol fractions, pH 7.4
[7] = target: T2, mouse mu opioid receptor (mMOR-CHO) (Mus musculus, UniProt P42866); test: [35S]GTPγS functional assay, mMOR-CHO membranes; assay type: biochemical
Kinetic solubility assay = assay type: physicochemical; settings: kinetic from dmso stock
[8] = target: T3, human δ-opioid receptor (OPRD1) (Homo sapiens, UniProt P41143); test: Forskolin-induced cAMP accumulation assay, DOR antagonist mode; settings: for DOR Antagonist %Imax ± SEM: versus EC50 of SNC80, normalized to naltrexone
[9] = Multi-point microsome stability assay, human; assay type: in vitro ADME; settings: both, human microsomal fractions, pH 7.4
[10] = Multi-point microsome stability assay, rat; assay type: in vitro ADME; settings: male, Sprague Dawley, rat microsomal fractions, pH 7.4
[11] = target: T3, human δ-opioid receptor (OPRD1); test: Forskolin-induced cAMP accumulation assay, DOR agonist mode; settings: for Emax: read-out: DOR Agonist %Emax ± SEM
[12] = Parallel artificial membrane permeability assay; assay type: in vitro ADME; settings: for PAMPA permeability Papp: stirring double-sink PAMPA
[13] = target: T1, human κ-opioid receptor (OPRK1); test: Forskolin-induced cAMP accumulation assay, KOR agonist mode; settings: for Emax: read-out: KOR Agonist %Emax ± SEM
[14] = target: human μ-opioid receptor (OPRM1) (Homo sapiens, UniProt P35372); test: cell-based; settings: for Emax: OPRM1, read-out: MOR Agonist %Emax ± SEM
mice [15] = test: Assay of pain-depressed locomotion in mice; assay type: in vivo, mouse
DOR (hDOR-CHO) [16] = target: T4, DOR (hDOR-CHO) (Homo sapiens, UniProt P41143); test: Competition radioligand binding assay, hDOR-CHO membranes; settings: DOR Receptor binding Ki, CHO cell membranes expressing cloned DOR
KOR (mKOR-CHO) [17] = target: T5, KOR (mKOR-CHO) (Mus musculus, UniProt P33534); test: Competition radioligand binding assay, mKOR-CHO membranes
[18] = target: T2, mouse mu opioid receptor (mMOR-CHO); test: Competition radioligand binding assay, [3H]naloxone, mMOR-CHO membranes
KOR (mKOR-CHO) [19] = target: T5, KOR (mKOR-CHO); test: [35S]GTPγS functional assay, mKOR-CHO membranes; assay type: biochemical; settings: KOR-mediated [35S]GTPγS binding, up to 30 μM
DOR (hDOR-CHO) [20] = target: T4, DOR (hDOR-CHO); test: [35S]GTPγS functional assay, hDOR-CHO membranes; assay type: biochemical
[21] = SC 30 min before 15 min session, significant increase, 12 mice per dose

SMILES	half-life at 1 μM [1] [min]	half-life at 1 μM [4] [min]	half-life at 1 μM [5] [min]	half-life at 1 μM [6] [min]	solubility kinetic (Kinetic solubility assay) [µg/mL]	DOR Antagonist %Imax ± SEM [8] [%]	half-life at 1 μM [9] [min]	half-life at 1 μM [10] [min]	EC50 [11] [nM]	EC50 [13] [nM]	EC50 [14] [nM]	Emax [14] [%]	IC50 [8] [nM]	also measured
C=C[C@H]1[C@H]2CCC[C@]1(c1cccc(O)c1)CCN2CCc1ccccc1 [DC-1–76.2, 3-((1R,5S,9R)-2-phenethyl-9-vinyl-2-azabicyclo[3.3.1]nonan-5-yl)phenol, reference compound]	4.7	80.7	> 120	71.9	34 (≈ 97.8 µM)	119.1 ± 15.5	12	6.9						effect on IP acid-induced depression of Crosses and Movement (mice [2]): failed to alleviate IP acid-induced depression of Crosses but did alleviate IP acid-induced depression of Movement; KOR Antagonist %Imax ± SEM ([3]; versus EC90 of U50488H, normalized to nor-BNI): 97.1 ± 9.2%; GTPγS % Emax of (DAMGO) ([7]; MOR, % of maximal DAMGO stimulation): 29.09 ± 0.78%
C=C[C@H]1[C@H]2CCC[C@]1(c1cccc(NC(C)=O)c1)CCN2CCc1ccccc1 [compound 3, N-(3-((1R,5S,9R)-2-Phenethyl-9-vinyl-2-azabicyclo[3.3.1]nonan-5-yl)phenyl)acetamide]	6.4	78	88.1	22.9	38 (≈ 97.8 µM)		21.3	3	303 ± 40.7	357 ± 109	2.73	101		Emax [11]: 56.6%; Papp ([12]; PAMPA): 731 ×10⁻⁶ cm/s; Emax [13]: 45.5%
C=C[C@H]1[C@H]2CCC[C@]1(c1cccc(C(N)=O)c1)CCN2CCc1ccccc1 [compound 5, 3-((1R,5S,9R)-2-Phenethyl-9-vinyl-2-azabicyclo[3.3.1]nonan-5-yl)benzamide]	16.7	> 120	> 120	> 120	5.1 (≈ 13.6 µM)	117.6 ± 8.0	40.4	3.2	6.01 ± 4.97	> 10000	5.28	75.1	498 ± 208	Crosses, drug administered alone: dose different from Vehicle (mice [15]; [21]): 18 mg/kg; Movement, drug administered alone: doses different from Vehicle (mice [15]; [21]): 10 to 18 mg/kg; antinociceptive attenuation of IP acid-induced depression of Crosses: dose different from Vehicle+IP acid (mice [15]; SC pretreatment to IP 0.56% lactic acid): 18 mg/kg; Ki (DOR (hDOR-CHO) [16]): 237 nM; IC50 [3]: > 10000 nM; Ki (KOR (mKOR-CHO) [17]): 48.7 ± 7.06 nM; Emax [11]: 25.2%; EC50 [7]: 23.3 ± 6.45 nM; Emax ([7]; read-out: GTPγS % Emax of (DAMGO), MOR, % of maximal DAMGO stimulation): 15.4 ± 1.8%; Ki [18]: 1.24 ± 0.17 nM; KOR GTPγS % Emax of (DAMGO) (KOR (mKOR-CHO) [19]): did not stimulate; also recorded: No Stim; EC50 (DOR (hDOR-CHO) [20]): 1460 ± 594 nM; Emax (DOR (hDOR-CHO) [20]; read-out: DOR GTPγS % Emax of (DAMGO)): -6.98 ± 1.21%
C=C[C@H]1[C@H]2CCC[C@]1(c1cccc(O)c1)CCN2C [compound 11, 3-((1R,5S,9R)-2-Methyl-9-vinyl-2-azabicyclo[3.3.1]nonan-5-yl)phenol]	21.8	97.9	> 120	112	> 25		68.9	62.6	> 10000	> 10000	> 10000		> 10000	IC50 [3]: > 10000 nM
C=C[C@H]1[C@H]2CCC[C@]1(c1cccc(O)c1)CCN2CC1CC1 [compound 15, 3-((1R,5S,9R)-2-(Cyclopropylmethyl)-9-vinyl-2-azabicyclo[3.3.1]nonan-5-yl)phenol]	2.7	> 120	108	> 120	> 29		8.7	9.7	> 10000	> 10000	> 10000		> 10000	PAMPA permeability Papp [12]: >1000 10E-6 cm/s
C=C[C@H]1[C@H]2CCC[C@]1(c1cccc(O)c1)CCN2CCc1ccc([N+](=O)[O-])cc1 [compound 17, 3-((1R,5S,9R)-2-(4-Nitrophenethyl)-9-vinyl-2-azabicyclo[3.3.1]nonan-5-yl)phenol]	9.31	> 120	> 120	105	10.6 (≈ 27 µM)	137.2 ± 9.7	16.8	12.9		> 10000	> 10000		105 ± 21.3	IC50 [7]: 16.2 ± 2.52 nM; GTPγS % Imax of (DAMGO) ([7]; MOR, maximal percent inhibition): 98.42% and 98.42 ± 4.24%; Ki [18]: 0.41 ± 0.05 nM
C=C[C@H]1[C@H]2CCC[C@]1(c1cccc(O)c1)CCN2CCc1cccc([N+](=O)[O-])c1 [compound 18, 3-((1R,5S,9R)-2-(3-Nitrophenethyl)-9-vinyl-2-azabicyclo[3.3.1]nonan-5-yl)phenol]	3.54	> 120	> 120	> 120	> 39	149.9 ± 13.2	10.6	1.98	> 10000	> 10000	2.05	85.8	52.5 ± 8.43	PAMPA permeability Papp [12]: >1000 10E-6 cm/s; Emax [13]: 0%
